Test results taken from PMC3954793, “SHP-2 Binds to Caveolin-1 and Regulates Src Activity via Competitive Inhibition of CSK in Response to H2O2 in Astrocytes” (PLoS ONE, 2014).
“Also recorded” adds a separate entry of the source. Each block holds one compound with its values, some of them ahead of it. Ends that are not written are not given here.

How the values were obtained:
[1] = system: SHP-2 (Y542 and Y580 phosphorylation); experiment: Immunoblot of p-SHP-2 Y542 and Y580; assay type: cell-based, human; conditions: CRT-MG cells; PTPi IV 5 or 10 µM, 30 min; 5 mM H2O2, 10 min
Description: (§1) Figure 7 SHP-2 and CSK reciprocally regulate H2O2-induced Src activation. […] Tubulin was evaluated as a loading control. Bottom panel, Densitometric quantification of p-Src Y419 levels (empty bars) and p-Src Y530 levels (filled bars), normalized to the level of total Src. Results are expressed as percentage of H2O2-treated values in control siRNA presented as mean ± SD. (*p<0.05 vs. H2O2-treated cells transfected with control siRNA; #p<0.05 between SHP-2 siRNA-transfected cells and CSK siRNA-transfected cells; n = 3). (B) Inhibition of SHP-2 by PTPi IV attenuated the H2O2-induced activation of the Src signaling pathway. CRT-MG cells were treated with 5 mM H2O2 or not for 10 min in the presence of 5 or 10 µM PTPi IV for 30 min, and lysed in cold-RIPA buffer. Antibodies against p-SHP-2, SHP-2, p-Src, Src, p-FAK, FAK, p-ERK, ERK, and tubulin were used for immunoblotting. Bottom panel, Densitometric quantification of p-Src Y419 levels (empty bars) and p-Src Y530 levels (filled bars), normalized to the level of total Src. […] (p, phospho).

FAK phosphorylation = experiment: Immunoblot of p-FAK; assay type: cell-based, human; conditions: CRT-MG cells; PTPi IV 5 or 10 µM, 30 min; 5 mM H2O2, 10 min
Description: as §1

[2] = system: Src (Tyr 419 phosphorylation); experiment: Immunoblot of p-Src Y419; assay type: cell-based, human; conditions: CRT-MG cells; PTPi IV 0–10 µM, 30 min; 5 mM H2O2, 10 min; n = 3
Description: (§2) Cells were plated and transfected with green fluorescence protein (GFP) siRNA (Samchully Pharm Co. Ltd., Seoul, Korea) as a control group and human CSK siRNA and human SHP-2 siRNA from Bioneer (Daejeon, Korea) using Lipofectamine RNAiMAX (Invitrogen, Carlsbad, CA, USA) according to the manufacturer’s instructions to achieve a final concentration of 300 nM.
as §1

ERK phosphorylation = experiment: Immunoblot of p-ERK; assay type: cell-based, human; conditions: CRT-MG cells; PTPi IV 5 or 10 µM, 30 min; 5 mM H2O2, 10 min
Description: as §2, §1

[3] = system: Src (Tyr 530 phosphorylation); experiment: Immunoblot of p-Src Y530; assay type: cell-based, human; conditions: CRT-MG cells; PTPi IV 0–10 µM, 30 min; 5 mM H2O2, 10 min; n = 3
Description: as §2, §1

recombinant GST-SHP-2 = target: T1, recombinant GST-SHP-2 (Homo sapiens, UniProt Q06124); experiment: Surface plasmon resonance, rGST-SHP-2; assay type: binding
T1 construct: purchased Abnova (Taipei, Taiwan)
T1 sequence (Q06124 1-593): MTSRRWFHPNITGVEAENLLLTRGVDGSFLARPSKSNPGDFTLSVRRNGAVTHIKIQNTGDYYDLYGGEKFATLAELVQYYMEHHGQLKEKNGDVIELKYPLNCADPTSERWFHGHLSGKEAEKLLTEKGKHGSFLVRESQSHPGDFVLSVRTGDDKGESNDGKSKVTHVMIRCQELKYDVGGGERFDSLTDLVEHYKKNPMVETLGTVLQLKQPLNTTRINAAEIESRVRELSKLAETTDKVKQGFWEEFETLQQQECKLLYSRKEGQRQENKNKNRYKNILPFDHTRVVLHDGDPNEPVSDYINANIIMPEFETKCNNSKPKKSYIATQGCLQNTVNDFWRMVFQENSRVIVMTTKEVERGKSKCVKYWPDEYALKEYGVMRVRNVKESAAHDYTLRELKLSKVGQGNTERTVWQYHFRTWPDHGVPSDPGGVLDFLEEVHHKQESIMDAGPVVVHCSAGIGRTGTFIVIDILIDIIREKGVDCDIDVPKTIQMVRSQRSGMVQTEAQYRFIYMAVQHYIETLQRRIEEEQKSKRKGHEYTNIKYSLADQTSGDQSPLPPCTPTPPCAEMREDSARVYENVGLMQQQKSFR
Description: (§3) SPR was performed on a SPRmicro system (K-MAC, Daejeon, Korea). A G1 chip (bare surface gold chip) was dipped into a 3 mM N-hydroxylsuccinimide self-assembled monolayer to form covalent bonds among protein amine groups. After washing with ethanol, the chip was purged with N2 gas. Recombinant GST-SHP-2 or GST-CSK was mixed with 20% ethylene glycol and then spotted onto the chip. Ligands were reacted on room temperature for 12 h to allow the ligands to become fixed onto the chip. After the reaction, the […] by washing with 1×Tris-buffered saline (TBS), and purged with N2 gas. SPR signal baselines were stabilized using 1×TBS running buffer, and different dilutions of caveolin-1 phosphopeptides (Cav-1 pY 14, GHL-pY-TVPIREQGN) in buffer were injected at a flow rate of 20 µL/min. Response unit (RU) alterations following sample reactions were analyzed by comparing affinities to the chip surface. Experiments were conducted by switching from samples immobilized on the chip (Cav-1 pY 14) to injected samples (rGST-CSK or rGST-SHP-2). […] Equilibrium binding curves and RU values are shown.
(§4) Figure 5 SPR and flow cytometric analyses of SHP-2 and CSK binding to phosphorylated-Tyr peptides of caveolin-1. […] After stringent wash, bound SHP-2 or CSK to caveolin-1 peptide conjugated beads were measured by Accuri C6 flow cytometer.

recombinant GST-CSK = experiment: Surface plasmon resonance, rGST-CSK; assay type: binding; conditions: rGST-CSK immobilized on G1 chip; peptide 10 to 1,000 µg/mL injected, 20 µL/min, 1×TBS; repeated twice
Description: as §3, §4

[4] = system: CSK binding to p-caveolin-1 peptide; experiment: Flow cytometric competitive binding assay (bound CSK on p-caveolin-1 peptide conjugated beads); parameters: species or system human; conditions: 10 µg recombinant CSK with SHP-2 protein 1–100 µg; flow cytometry; repeated twice
Description: (§5) Human SHP-2 and CSK fusion constructs were produced by consecutively subcloning the protein coding regions of SHP-2 and CSK into the pGEX-6P-1 vector (GE healthcare, Piscataway, NJ, USA). Using these constructs, human SHP-2 and CSK were overexpressed in Escherichia coli (BL21) as soluble. Briefly, the transformed bacteria were grown in LB medium with 0.1 mg/ml ampicillin at 37°C to an A600 of 0.6, and then cultured for an additional overnight at 27°C after being induced with 0.5 mM IPTG (Duchefa Biochemie, Netherlands). The cells were harvested by centrifugation at 8000 g for 20 min, resuspended in PBS pH 7.4, and then disrupted by ultrasonication. The supernatant was purified with glutathione agarose 4B (Incospharm, Daejeon, South Korea) in PBS pH 7.4. The bound proteins were eluted with a linear gradient 10 mM glutathione in 50 mM Tris (pH 8.0). All proteins were concentrated with a Centricon apparatus (Miliipore, Darmstadt, Germany). Proteins were quantitated with the Bradford assay, then filtered and stored at −70°C until use. […]
Figure 6 Small interfering RNA targeting CSK facilitates H2O2-mediated binding between caveolin-1 and SHP-2. […] Fluorescent intensities were measured by Accuri C6 flow cytometer.

recombinant CSK protein = experiment: Bead-based flow cytometric binding assay, CSK; parameters: species or system human; conditions: caveolin-1 (1–50 a.a.) peptide on carboxyl beads; CSK protein 1–10 µg, 1 h, RT; flow cytometry; repeated twice
Description: as §5, §4

[5] = system: recombinant SHP-2 protein; experiment: Bead-based flow cytometric binding assay, SHP-2; parameters: species or system human; conditions: caveolin-1 (1–50 a.a.) peptide on carboxyl beads; SHP-2 protein 1–10 µg, 1 h, RT; flow cytometry; repeated twice
Description: as §5, §4

Compound: CC(C)(c1ccc(NS(=O)(=O)C(F)(F)F)cc1)c1ccc(C(C)(C)c2ccc(NS(=O)(=O)C(F)(F)F)cc2)cc1 [PTPi IV]
- SHP-2 phosphorylation at Y542 and Y580 [1]: significantly reduced
- FAK phosphorylation (FAK phosphorylation): strongly inhibited; also recorded: reduced
- H2O2-mediated phosphorylation of Src at Tyr 419 [2]: dose-dependent decrease
- ERK phosphorylation (ERK phosphorylation): strongly inhibited; also recorded: reduced
- H2O2-mediated phosphorylation of Src at Tyr 530 [3]: no significant change

- SPR binding affinity (recombinant GST-SHP-2; rGST-SHP-2 immobilized on G1 chip, peptide 10 to 1,000 µg/mL injected, 20 µL/min, 1×TBS, repeated twice): high affinity
- SPR binding affinity (recombinant GST-CSK): high affinity
Compound: GHL-pY-TVPIREQGN [Cav-1 pY 14, synthetic peptide phosphorylated at a Tyr residue corresponding to Tyr 14 of caveolin-1]
- difference in kinetic rates or RUs, rGST-SHP-2 versus rGST-CSK (recombinant GST-SHP-2; rGST-SHP-2 compared with rGST-CSK, immobilized on G1 chip, peptide 10 to 1,000 µg/mL): no significant difference in their kinetic rates or RUs

Compound: SHP-2 protein: human SHP-2 overexpressed in Escherichia coli (BL21) from pGEX-6P-1, glutathione agarose purified
- amount of bound CSK on p-caveolin-1 peptide conjugated beads [4]: reduced by adding increasing concentrations of SHP-2 protein

- binding of CSK to peptide conjugated beads (recombinant CSK protein): significantly bound
- binding of SHP-2 to peptide conjugated beads [5]: significantly bound
Compound: p-caveolin-1 peptide: Fifty-amino acid-long synthetic peptides of caveolin-1 (1–50 a.a.) conjugated to carboxyl beads using EDC (MSGGKYVDSEGHLYTVPIREQGNIYKPNNKAMADELSEKQVYDAHTKEID; also: phosphorylated, sites not given here; UniProt Q03135 1-50, looked up, fragment)
